In ChEMBL document CHEMBL1153338, “Semi-synthetic and synthetic 1,2,4-trioxaquines and 1,2,4-trioxolaquines: synthesis, preliminary SAR and comparison with acridine endoperoxide conjugates” (Bioorg Med Chem Lett, 2009):

Key:
[1] = test system: Plasmodium falciparum; experiment: Antimalarial activity against chloroquine-sensitive Plasmodium falciparum 3D7 infected type A+ human erythrocytes after 24 hrs by [G-3H]hypoxanthine uptake; type: functional, organism-based; details: 3D7, 24 h
[2] = test system: Plasmodium falciparum; experiment: Antimalarial activity against chloroquine-resistant Plasmodium falciparum K1 infected type A+ human erythrocytes after 24 hrs by [G-3H]hypoxanthine uptake; type: functional, organism-based; details: K1, 24 h

Compound	IC50 [1] [µM]	IC50 [2] [µM]
C[C@H]1[C@@H](CCNCCNc2ccnc3cc(Cl)ccc23)O[C@@H]2O[C@@]3(C)CC[C@H]4[C@H](C)CC[C@@H]1[C@@]24OO3	0.0054	0.0087
COc1ccc2nc3cc(Cl)ccc3c(NCCNCc3ccc(CO[C@H]4O[C@@H]5O[C@@]6(C)CC[C@H]7[C@H](C)CC[C@@H]([C@H]4C)[C@@]57OO6)cc3)c2c1	0.0123	0.0193
Clc1ccc2c(NCCCNC3CCC4(CC3)OOC3(O4)C4CC5CC(C4)CC3C5)ccnc2c1 (stereo not given)	0.0123	0.00832
C[C@H]1[C@@H](CCNCCCCCNc2ccnc3cc(Cl)ccc23)O[C@@H]2O[C@@]3(C)CC[C@H]4[C@H](C)CC[C@@H]1[C@@]24OO3	0.0243	0.0162
Clc1ccc2c(N3CCN(C4CCC5(CC4)OOC4(O5)C5CC6CC(C5)CC4C6)CC3)ccnc2c1 (stereo not given)	0.0126	0.0262
COc1ccc2nc3cc(Cl)ccc3c(NCCNC3CCC4(CC3)OOC3(O4)C4CC5CC(C4)CC3C5)c2c1 (stereo not given)	0.00967	0.0072
C[C@H]1[C@@H](CC(=O)NCCCNc2ccnc3cc(Cl)ccc23)O[C@@H]2O[C@@]3(C)CC[C@H]4[C@H](C)CC[C@@H]1[C@@]24OO3	0.00934	0.00822
COc1ccc2nc3cc(Cl)ccc3c(N3CCN(C4CCC5(CC4)OOC4(O5)C5CC6CC(C5)CC4C6)CC3)c2c1 (stereo not given)	0.0123	0.00676
COc1ccc2nc3cc(Cl)ccc3c(NCCCNC3CCC4(CC3)OOC3(O4)C4CC5CC(C4)CC3C5)c2c1 (stereo not given)	0.0125	0.0111
C[C@H]1[C@@H](CCNCCCNc2ccnc3cc(Cl)ccc23)O[C@@H]2O[C@@]3(C)CC[C@H]4[C@H](C)CC[C@@H]1[C@@]24OO3	0.0115	0.0126
COc1ccc2nc3cc(Cl)ccc3c(NCCCNCc3ccc(CO[C@H]4O[C@@H]5O[C@@]6(C)CC[C@H]7[C@H](C)CC[C@@H]([C@H]4C)[C@@]57OO6)cc3)c2c1	0.0163	0.0202
COc1ccc2nc3cc(Cl)ccc3c(NCCNCC[C@H]3O[C@@H]4O[C@@]5(C)CC[C@H]6[C@H](C)CC[C@@H]([C@H]3C)[C@@]46OO5)c2c1	0.0125	0.0143
O=C1CCC2(CC1)OOC1(O2)C2CC3CC(C2)CC1C3 (stereo not given)	0.0031	0.00302
Clc1ccc2c(NCCNC3CCC4(CC3)OOC3(O4)C4CC5CC(C4)CC3C5)ccnc2c1 (stereo not given)	0.00656	0.0036
C[C@H]1[C@@H](CCNCCCCNc2ccnc3cc(Cl)ccc23)O[C@@H]2O[C@@]3(C)CC[C@H]4[C@H](C)CC[C@@H]1[C@@]24OO3	0.0126	0.0132
